# Source: patent publication US20240327380A1, “BTK INHIBITORS” (BIOGEN MA INC., priority 2020, published 2024)
# pIC50: −log10 of the molar value.
# Target: T1, active BTK enzyme (Upstate 14-552) (Homo sapiens, UniProt Q06187)
# T1 construct: purchased Upstate 14-552
# Experiment: In Vitro BTK Kinase Assay: Btk-PolyGAT-LS Assay
# Type: biochemical
# Details: ATP 10 μM, polyGAT 100 nM, BTK 0.25 nM, 30 minutes, TRF readout
# Procedure: In Vitro BTK Kinase Assay: Btk-PolyGAT-LS Assay The purpose of the BTK in vitro assay is to determine compound potency against BTK through the measurement of IC50. Compound inhibition is measured after monitoring the amount of phosphorylation of a fluorescein-labeled polyGAT peptide (Invitrogen PV3611) in the presence of active BTK enzyme (Upstate 14-552), ATP, and inhibitor. The BTK kinase reaction was done in a black 96 well plate (costar 3694). For a typical assay, a 24 μL aliquot of a ATP/peptide master mix (final concentration; ATP 10 μM, polyGAT 100 nM) in kinase buffer (10 mM Tris-HCl pH 7.5, 10 mM MgCl2, 200 μM […], 5 mM DTT, 0.01% Triton X-100, and 0.2 mg/ml casein) is added to each well. Next, […] of a 4-fold, 40× compound titration in 100% DMSO solvent is added, followed by adding 15 μL of BTK enzyme mix in 1× kinase buffer (with a final concentration of 0.25 nM). The assay is incubated for 30 minutes before being stopped with 28 μL of a 50 mM EDTA solution. Aliquots (5 μL) of the kinase reaction are transferred to a low volume white 384 well plate (Coming 3674), and 5 μL of a 2× detection buffer (Invitrogen PV3574, with 4 nM Tb-PY20 antibody, Invitrogen PV3552) is added. The plate is covered and incubated for 45 minutes at room temperature. Time resolved fluorescence (TRF) on Molecular Devices M5 (332 nm excitation; 488 nm emission; 518 nm fluorescein emission) is measured. IC50 values are calculated using a four parameter fit with 100% enzyme activity determined from the DMSO control and 0% activity from the EDTA control.
# T1 sequence (Q06187 whole entry): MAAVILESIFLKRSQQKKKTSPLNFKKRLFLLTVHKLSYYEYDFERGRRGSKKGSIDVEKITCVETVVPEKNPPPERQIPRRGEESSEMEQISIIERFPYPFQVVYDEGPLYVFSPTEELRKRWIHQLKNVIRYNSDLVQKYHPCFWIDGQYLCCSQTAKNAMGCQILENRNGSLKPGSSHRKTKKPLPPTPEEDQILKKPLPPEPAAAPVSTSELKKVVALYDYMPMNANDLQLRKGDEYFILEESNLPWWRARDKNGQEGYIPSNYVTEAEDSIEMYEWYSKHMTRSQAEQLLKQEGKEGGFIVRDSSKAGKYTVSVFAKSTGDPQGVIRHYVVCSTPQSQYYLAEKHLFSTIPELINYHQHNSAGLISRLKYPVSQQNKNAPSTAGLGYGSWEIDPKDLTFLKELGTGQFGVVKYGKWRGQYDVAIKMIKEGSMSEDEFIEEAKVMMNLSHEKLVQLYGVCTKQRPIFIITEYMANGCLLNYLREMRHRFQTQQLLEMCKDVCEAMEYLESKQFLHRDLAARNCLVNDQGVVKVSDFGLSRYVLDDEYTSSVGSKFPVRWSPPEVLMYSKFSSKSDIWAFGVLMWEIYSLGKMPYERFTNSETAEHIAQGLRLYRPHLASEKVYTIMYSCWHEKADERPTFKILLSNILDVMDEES
row,SMILES,pIC50
1,"CN(C)C/C=C/C(=O)N1CCN(c2cnccc2-c2ccc(CNC(=O)c3noc(C4(C)CC4)n3)c(C(F)(F)F)c2)CC1 [Example 91, (E)-N-(4-(3-(4-(4-(dimethylamino)but-2-enoyl)piperazin-1-yl)pyridin-4-yl)-2-(trifluoromethyl)benzyl)-5-(1-methylcyclopropyl)-1,2,4-oxadiazole-3-carboxamide]",≥ 9.00
2,"C=CC(=O)N1CCC[C@@H](c2cnccc2-c2ccc(CNC(=O)c3cc(C(C)(C)C)on3)c(C)c2)C1 (single isomer, unassigned) [Example 34]",< 8.00
3,"Cc1cc(-c2c(F)cncc2N2CCN(C(=O)/C=C/CN(C)C)CC2)ccc1CNC(=O)c1nc(C(C)(C)C)no1 [Example 78, (E)-3-(tert-butyl)-N-(4-(3-(4-(4-(dimethylamino)but-2-enoyl)piperazin-1-yl)-5-fluoropyridin-4-yl)-2-methylbenzyl)-1,2,4-oxadiazole-5-carboxamide]",≥ 9.00
4,"C=CC(=O)N1CCN(c2cnccc2-c2ccc(CNC(=O)c3noc(C4(CF)CC4)n3)c(C)c2)CC1 [Example 98, N-(4-(3-(4-acryloylpiperazin-1-yl)pyridin-4-yl)-2-methylbenzyl)-5-(1-(fluoromethyl)cyclopropyl)-1,2,4-oxadiazole-3-carboxamide]",≥ 9.00
5,"C=CC(=O)N(C)[C@@H]1CCC(=O)N(c2cnccc2-c2ccc(CNC(=O)c3nnn(C(C)(C)C)n3)c(C)c2)C1 (single isomer, unassigned) [Example 53 Peak 2]",< 8.00
6,"Cc1cc(-c2ccncc2N2CCN(C(=O)/C=C/C(F)(F)F)CC2)ccc1CNC(=O)c1noc(C(C)(C)C)n1 [Example 58, (E)-5-(tert-butyl)-N-(2-methyl-4-(3-(4-(4,4,4-trifluorobut-2-enoyl)piperazin-1-yl)pyridin-4-yl)benzyl)-1,2,4-oxadiazole-3-carboxamide]",≥ 9.00
7,"C=CC(=O)N1CCC[C@@H](c2cnccc2-c2ccc(CNC(=O)c3cn(C(C)(C)C)nn3)c(C)c2)C1 (single isomer, unassigned) [Example 25]",< 8.00
8,"C=CC(=O)N1CCN(c2cnccc2-c2ccc(CNC(=O)c3ccc(C(F)F)nc3)c(C)c2)CC1 [Example 97, N-(4-(3-(4-acryloylpiperazin-1-yl)pyridin-4-yl)-2-methylbenzyl)-6-(difluoromethyl)nicotinamide]",8.00 to 9.00
9,"Cc1cc(-c2ccncc2N2CCN(C(=O)/C=C/CN(C)C)CC2)ccc1CNC(=O)c1noc(C2(CF)CC2)n1 [Example 93, (E)-N-(4-(3-(4-(4-(dimethylamino)but-2-enoyl)piperazin-1-yl)pyridin-4-yl)-2-methylbenzyl)-5-(1-(fluoromethyl)cyclopropyl)-1,2,4-oxadiazole-3-carboxamide]",≥ 9.00
10,"Cc1cc(-c2ccncc2N2CCN(C(=O)/C=C/CN3CCN(C)CC3)CC2)ccc1CNC(=O)c1noc(C(C)(C)C)n1 [Example 65, (E)-5-(tert-butyl)-N-(2-methyl-4-(3-(4-(4-(4-methylpiperazin-1-yl)but-2-enoyl)piperazin-1-yl)pyridin-4-yl)benzyl)-1,2,4-oxadiazole-3-carboxamide]",8.00 to 9.00
11,"C=CC(=O)N1CC2CC1CN(c1cnccc1-c1ccc(CNC(=O)c3cn(C(C)(C)C)nn3)c(C)c1)C2 (stereo not drawn) [Example 54, 1-tert-butyl-N-[[2-methyl-4-[3-(6-prop-2-enoyl-3,6-diazabicyclo[3.2.1]octan-3-yl)-4-pyridyl]phenyl]methyl]triazole-4-carboxamide]",< 8.00
12,"C=CC(=O)N1CCC[C@@H](c2cnccc2-c2ccc(CNC(=O)c3nc(C4(C)CC4)no3)c(C)c2)C1 (single isomer, unassigned) [Example 31]",< 8.00
13,"C=CC(=O)N1CC2(C1)CN(c1cnccc1-c1ccc(CNC(=O)c3noc(C(C)(C)C)n3)c(C)c1)C2 [Example 6, N-(4-(3-(6-acryloyl-2,6-diazaspiro[3.3]heptan-2-yl)pyridin-4-yl)-2-methylbenzyl)-5-(tert-butyl)-1,2,4-oxadiazole-3-carboxamide]",< 8.00
14,"CNC/C=C/C(=O)N1CCN(c2cnccc2-c2ccc(CNC(=O)c3noc(C(C)(C)C)n3)c(C)c2)CC1 [Example 68, (E)-5-(tert-butyl)-N-(2-methyl-4-(3-(4-(4-(methylamino)but-2-enoyl)piperazin-1-yl)pyridin-4-yl)benzyl)-1,2,4-oxadiazole-3-carboxamide]",8.00 to 9.00
15,"CN(C)C/C=C/C(=O)N1CCN(c2cnccc2-c2ccc(CNC(=O)c3nc(C(C)(C)C)no3)c(C(F)(F)F)c2)CC1 [Example 92, (E)-3-(tert-butyl)-N-(4-(3-(4-(4-(dimethylamino)but-2-enoyl)piperazin-1-yl)pyridin-4-yl)-2-(trifluoromethyl)benzyl)-1,2,4-oxadiazole-5-carboxamide]",≥ 9.00
16,"Cc1cc(-c2ccncc2N2CCN(C(=O)/C=C/CN(C)C)CC2)ccc1CN1CCc2c(cnn2C(C)(C)C)C1=O [Example 72, (E)-1-(tert-butyl)-5-(4-(3-(4-(4-(dimethylamino)but-2-enoyl)piperazin-1-yl)pyridin-4-yl)-2-methylbenzyl)-1,5,6,7-tetrahydro-4H-pyrazolo[4,3-c]pyridin-4-one]",≥ 9.00
17,"C=CC(=O)N1CCN(c2cnccc2-c2ccc(CNC(=O)c3noc(C4(C(F)F)CC4)n3)c(C)c2)CC1 [Example 99, N-(4-(3-(4-acryloylpiperazin-1-yl)pyridin-4-yl)-2-methylbenzyl)-5-(1-(difluoromethyl)cyclopropyl)-1,2,4-oxadiazole-3-carboxamide]",≥ 9.00
18,"Cc1cc(-c2ccncc2N2CCN(C(=O)/C=C/CN3CCOCC3)CC2)ccc1CNC(=O)c1noc(C(C)(C)C)n1 [Example 67, (E)-5-(tert-butyl)-N-(2-methyl-4-(3-(4-(4-morpholinobut-2-enoyl)piperazin-1-yl)pyridin-4-yl)benzyl)-1,2,4-oxadiazole-3-carboxamide]",8.00 to 9.00
19,"Cc1cc(-c2ccncc2N2CCN(C(=O)/C=C/CN(C)C)C(C)C2)ccc1CNC(=O)c1noc(C(C)(C)C)n1 (stereo not drawn) [Example 74, (E)-5-(tert-butyl)-N-(4-(3-(4-(4-(dimethylamino)but-2-enoyl)-3-methylpiperazin-1-yl)pyridin-4-yl)-2-methylbenzyl)-1,2,4-oxadiazole-3-carboxamide]",≥ 9.00
20,"Cc1cc(-c2c(F)cncc2N2CCN(C(=O)/C=C/CN(C)C)CC2)ccc1CNC(=O)c1noc(C2(C)CC2)n1 [Example 77, (E)-N-(4-(3-(4-(4-(dimethylamino)but-2-enoyl)piperazin-1-yl)-5-fluoropyridin-4-yl)-2-methylbenzyl)-5-(1-methylcyclopropyl)-1,2,4-oxadiazole-3-carboxamide]",8.00 to 9.00
21,"Cc1cc(-c2c(C#N)cncc2N2CCN(C(=O)/C=C/CN(C)C)CC2)ccc1CNC(=O)c1cc(C(C)(C)C)on1 [Example 70, (E)-5-(tert-butyl)-N-(4-(3-cyano-5-(4-(4-(dimethylamino)but-2-enoyl)piperazin-1-yl)pyridin-4-yl)-2-methylbenzyl)isoxazole-3-carboxamide]",8.00 to 9.00
22,"C=CC(=O)N1CCC[C@H](c2cnccc2-c2ccc(CNC(=O)c3noc(C4(C)CC4)n3)c(C)c2)C1 (single isomer, unassigned) [Example 27]",< 8.00
23,"C=CC(=O)N(C)C1CCN(c2cncnc2-c2ccc(CNC(=O)c3cn(C(C)(C)C)nn3)c(C)c2)C1 (stereo not drawn) [Example 9, 1-(tert-butyl)-N-(2-methyl-4-(5-(3-(N-methylacrylamido)pyrrolidin-1-yl)pyrimidin-4-yl)benzyl)-1H-1,2,3-triazole-4-carboxamide]",≥ 9.00
24,"C=CC(=O)N1CCN(c2cncnc2-c2ccc(CNC(=O)c3noc(C(C)(C)C)n3)c(C)c2)CC1 [Example 80, N-(4-(5-(4-acryloylpiperazin-1-yl)pyrimidin-4-yl)-2-methylbenzyl)-5-(tert-butyl)-1,2,4-oxadiazole-3-carboxamide]",≥ 9.00
25,"C=CC(=O)N1CCN(c2cncnc2-c2ccc(CNC(=O)c3cn(C(C)(C)C)nn3)c(C)c2)CC1 [Example 50, N-(4-(5-(4-acryloylpiperazin-1-yl)pyrimidin-4-yl)-2-methylbenzyl)-1-(tert-butyl)-1H-1,2,3-triazole-4-carboxamide]",≥ 9.00
26,"CN(C)C/C=C/C(=O)N1CCN(c2cnccc2-c2ccc(CNC(=O)c3noc(C4(C)CC4)n3)c(C(F)F)c2)CC1 [Example 88, (E)-N-(2-(difluoromethyl)-4-(3-(4-(4-(dimethylamino)but-2-enoyl)piperazin-1-yl)pyridin-4-yl)benzyl)-5-(1-methylcyclopropyl)-1,2,4-oxadiazole-3-carboxamide]",8.00 to 9.00
27,"Cc1cc(-c2ccncc2N2CCN(C(=O)C3=CCC3)CC2)ccc1CNC(=O)c1noc(C(C)(C)C)n1 [Example 57, 5-(tert-butyl)-N-(4-(3-(4-(cyclobut-1-ene-1-carbonyl)piperazin-1-yl)pyridin-4-yl)-2-methylbenzyl)-1,2,4-oxadiazole-3-carboxamide]",≥ 9.00
